How the values were obtained:
[1] = bacteroides thetaiotaomicron, 12 h, 2 µM
Description: The drug is tested on Bacteroides thetaiotaomicron strain: 3731 for biotransformation. The drug concentrations were measured before and after a 12-h incubation by liquid-chromatography-coupled mass spectrometry (LC–MS)

[2] = The drug is tested on Bacteroides vulgatus strain: ATCC8482 for biotransformation. The drug concentrations were measured before and after a 12-h incubation by liquid-chromatography-coupled mass spectrometry (LC–MS); conditions: phocaeicola vulgatus, 2 µM
[3] = The drug is tested on Bacteroides fragilis strain: HMW615 for biotransformation. The drug concentrations were measured before and after a 12-h incubation by liquid-chromatography-coupled mass spectrometry (LC–MS); conditions: 2 µM
[4] = The drug is tested on Escherichia coli strain: BW25113 for biotransformation. The drug concentrations were measured before and after a 12-h incubation by liquid-chromatography-coupled mass spectrometry (LC–MS); conditions: 2 µM
[5] = akkermansia muciniphila, 12 h, 2 µM
Description: The drug is tested on Akkermansia muciniphila strain: ATCC BAA-835 for biotransformation. The drug concentrations were measured before and after a 12-h incubation by liquid-chromatography-coupled mass spectrometry (LC–MS)

[6] = The drug is tested on Odoribacter splanchnicus strain: fecal isolate for biotransformation. The drug concentrations were measured before and after a 12-h incubation by liquid-chromatography-coupled mass spectrometry (LC–MS); conditions: 2 µM
[7] = The drug is tested on Bacteroides uniformis strain: ATCC8492 for biotransformation. The drug concentrations were measured before and after a 12-h incubation by liquid-chromatography-coupled mass spectrometry (LC–MS); conditions: 2 µM
[8] = The drug is tested on Blautia hansenii strain: DSM20583 for biotransformation. The drug concentrations were measured before and after a 12-h incubation by liquid-chromatography-coupled mass spectrometry (LC–MS); conditions: 2 µM
[9] = The drug is tested on Alistipes indistinctus strain: DSM22520 for biotransformation. The drug concentrations were measured before and after a 12-h incubation by liquid-chromatography-coupled mass spectrometry (LC–MS); conditions: 2 µM
[10] = The drug is tested on Eubacterium hallii strain: DSM3353 for biotransformation. The drug concentrations were measured before and after a 12-h incubation by liquid-chromatography-coupled mass spectrometry (LC–MS); conditions: anaerobutyricum hallii, 2 µM
[11] = The drug is tested on Bacteroides dorei strain: DSM17855 for biotransformation. The drug concentrations were measured before and after a 12-h incubation by liquid-chromatography-coupled mass spectrometry (LC–MS); conditions: phocaeicola dorei, 2 µM
[12] = The drug is tested on Clostridium ramosum strain: DSM1402 for biotransformation. The drug concentrations were measured before and after a 12-h incubation by liquid-chromatography-coupled mass spectrometry (LC–MS); conditions: thomasclavelia ramosa, 2 µM
[13] = The drug is tested on Edwardsiella tarda strain: ATCC23685 for biotransformation. The drug concentrations were measured before and after a 12-h incubation by liquid-chromatography-coupled mass spectrometry (LC–MS); conditions: 2 µM
[14] = The drug is tested on Collinsella intestinalis strain: DSM13280 for biotransformation. The drug concentrations were measured before and after a 12-h incubation by liquid-chromatography-coupled mass spectrometry (LC–MS); conditions: 2 µM
[15] = The drug is tested on Clostridium sporogenes strain: ATCC15579 for biotransformation. The drug concentrations were measured before and after a 12-h incubation by liquid-chromatography-coupled mass spectrometry (LC–MS); conditions: 2 µM
[16] = The drug is tested on Anaerococcus hydrogenalis strain: DSM7454 for biotransformation. The drug concentrations were measured before and after a 12-h incubation by liquid-chromatography-coupled mass spectrometry (LC–MS); conditions: 2 µM
[17] = The drug is tested on Collinsella aerofaciens strain: ATCC25986 for biotransformation. The drug concentrations were measured before and after a 12-h incubation by liquid-chromatography-coupled mass spectrometry (LC–MS); conditions: 2 µM
[18] = bacteroides stercoris, 12 h, 2 µM
Description: The drug is tested on Bacteroides stercoris strain: ATCC43183 for biotransformation. The drug concentrations were measured before and after a 12-h incubation by liquid-chromatography-coupled mass spectrometry (LC–MS)

[19] = The drug is tested on Bacteroides finegoldii strain: DSM17565 for biotransformation. The drug concentrations were measured before and after a 12-h incubation by liquid-chromatography-coupled mass spectrometry (LC–MS); conditions: 2 µM
[20] = The drug is tested on Clostridium scindens strain: ATCC35704 for biotransformation. The drug concentrations were measured before and after a 12-h incubation by liquid-chromatography-coupled mass spectrometry (LC–MS); conditions: 2 µM

| Structure (SMILES) | Bacterial Biotransformation [1] | Bacterial Biotransformation [2] | Bacterial Biotransformation [3] | Bacterial Biotransformation [4] | Bacterial Biotransformation [5] | Bacterial Biotransformation [6] | Bacterial Biotransformation [7] | Bacterial Biotransformation [8] | Bacterial Biotransformation [9] | Bacterial Biotransformation [10] | Bacterial Biotransformation [11] | Bacterial Biotransformation [12] | Bacterial Biotransformation [13] | Bacterial Biotransformation [14] | Bacterial Biotransformation [15] | Bacterial Biotransformation [16] | Bacterial Biotransformation [17] | Bacterial Biotransformation [18] | Bacterial Biotransformation [19] | Bacterial Biotransformation [20] |
| --- | --- | --- | --- | --- | --- | --- | --- | --- | --- | --- | --- | --- | --- | --- | --- | --- | --- | --- | --- | --- |
| C=CC[C@@H]1/C=C(\C)C[C@H](C)C[C@H](OC)[C@H]2O[C@@](O)(C(=O)C(=O)N3CCCC[C@H]3C(=O)O[C@H](/C(C)=C/[C@@H]3CC[C@@H](O)[C@H](OC)C3)[C@H](C)[C@@H](O)CC1=O)[C@H](C)C[C@@H]2OC.O [TACROLIMUS] | Compound NOT metabolized | Compound NOT metabolized | Compound NOT metabolized | Compound metabolized | Compound metabolized | Compound metabolized | Compound metabolized | Compound metabolized | Compound metabolized | Compound metabolized | Compound metabolized | Compound metabolized | Compound NOT metabolized | Compound metabolized | Compound metabolized | Compound metabolized | Compound metabolized | Compound metabolized | Compound metabolized | Compound metabolized |
| CCCCCNC(=N)N/N=C/c1c[nH]c2ccc(OC)cc12.O=C(O)/C=C\C(=O)O [TEGASEROD MALEATE] | Compound NOT metabolized | Compound NOT metabolized | Compound NOT metabolized | Compound NOT metabolized | Compound NOT metabolized | Compound NOT metabolized | Compound NOT metabolized | Compound NOT metabolized | Compound NOT metabolized | Compound NOT metabolized | Compound NOT metabolized | Compound NOT metabolized | Compound NOT metabolized | Compound NOT metabolized | Compound NOT metabolized | Compound NOT metabolized | Compound NOT metabolized | Compound NOT metabolized | Compound NOT metabolized | Compound NOT metabolized |
| CN(C/C=C/C#CC(C)(C)C)Cc1cccc2ccccc12 [TERBINAFINE] | Compound NOT metabolized | Compound NOT metabolized | Compound NOT metabolized | Compound NOT metabolized | Compound NOT metabolized | Compound NOT metabolized | Compound NOT metabolized | Compound NOT metabolized | Compound NOT metabolized | Compound NOT metabolized | Compound NOT metabolized | Compound NOT metabolized | Compound NOT metabolized | Compound NOT metabolized | Compound NOT metabolized | Compound NOT metabolized | Compound NOT metabolized | Compound NOT metabolized | Compound NOT metabolized | Compound NOT metabolized |

Source: ChEMBL document CHEMBL5303573, “Mapping human microbiome drug metabolism by gut bacteria and their genes” (Nature, 2019)
